A short description of data set [1]: in vitro cytotoxicity, MTT. In kind it is cell-based. To be noted: human, normal hepatic cell line HL7702, MTT, n = 3, mean ± SD. On the procedure:
(§1) The anticancer activity of the related natural products has been described in a number of literatures, and the structure activity relationships of related synthetic natural products have been reported.
(§2) IC50 values were calculated using GraphPad Prism 5 software. All data were obtained in triplicate and are presented as means ± SD.

For data set [2], the system named is human breast adenocarcinoma cell line MCF-7. In words: in vitro cytotoxicity, MTT. In kind it is cell-based. As to the method: as §1, §2
For data set [3], the system named is human hepatocarcinoma cancer cell line HepG2. In words: in vitro cytotoxicity, MTT. Type of data set: cell-based. On the procedure:
as §1, §2

Data set [4] relates to human lung cancer cell line A549. In words: in vitro cytotoxicity, MTT. Type of data set: cell-based. As to the method:
as §1, §2

In data set [5] the test system is human nasopharyngeal carcinoma cell line CNE2. In words: in vitro cytotoxicity, MTT. Type of data set: cell-based. On the procedure:
as §1, §2

Data set [6] relates to MRSE shhs-E1. In words: antibacterial activity, dilution susceptibility test. To be noted: Staphylococcus epidermidis. In kind it is cell-based, methicillin-resistant Staphylococcus epidermidis. As to the method: (§3) The antibacterial activities of compounds 1–5 were evaluated using MRSE shhs-E1, methicillin-resistant Staphylococcus aureus (MRSA) shhs-A1, Staphylococcus aureus ATCC 29213, Enterococcus faecalis ATCC29212, Escherichia coli ATCC 25922, Micrococcus luteus, and multidrug resistant Pseudomonas aeruginosa.
(§4) The antibacterial activities of compounds 1–5 were assessed using seven strains of pathogenic bacteria including MRSE shhs-E1, MRSA shhs-A1, Staphylococcus aureus ATCC 29213, Enterococcus faecalis ATCC29212, Escherichia coli ATCC 25922, Micrococcus luteus, and multidrug resistant Pseudomonas aeruginosa. Dilution antimicrobial susceptibility tests for aerobic bacteria were carried out as previously reported.

The test system of data set [7] is MRSA shhs-A1. The data set is described as above. Type of data set: cell-based, methicillin-resistant Staphylococcus aureus. To be noted: Staphylococcus aureus. On the procedure: as §3, §4
Data set [8] relates to Enterococcus faecalis ATCC29212. The description is as above. In kind it is cell-based. As to the method:
as §3, §4

Data set [9] deals with Escherichia coli ATCC 25922. Described as above. Type of data set: cell-based. To be noted: ATCC25922. On the procedure: as §3, §4
Data set [10] deals with Micrococcus luteus. Described as above. Type of data set: cell-based. As to the method:
as §3, §4

Data set [11] has as its system Staphylococcus aureus ATCC 29213. Described as above. In kind it is cell-based. To be noted: ATCC29213. On the procedure:
as §3, §4

Data set [12] concerns multidrug resistant Pseudomonas aeruginosa. Described as above. Type of data set: cell-based. On the procedure: as §3, §4
Data set [13] deals with four human cancer cell lines A549, CNE2, HepG2, MCF-7. In words: in vitro cytotoxicity, MTT, panel of four cancer cell lines. In kind it is cell-based. To be noted: for estimated therapeutic ratio (TR): comparison of tumor cell-derived IC50 values with HL7702 IC50; for fold more cytotoxic/potent than the positive control cisplatin: relative to cisplatin, cancer cell lines. As to the method:
Compounds 1–5 were tested for potential in vitro cytotoxicity against human lung cancer cell line A549, human nasopharyngeal carcinoma cell line CNE2, human breast adenocarcinoma cell line MCF-7, human hepatocarcinoma cancer cell line HepG2, and the normal hepatic cell line HL7702. […] The anticancer activity of the related natural products has been described in a number of literatures, and the structure activity relationships of related synthetic natural products have been reported.
Compounds 1–5 were evaluated for cytotoxic activity using four human cancer cell lines, A549, CNE2, HepG2, MCF-7, one normal hepatic cell line HL7702 and previously reported MTT methodologies. IC50 values were calculated using GraphPad Prism 5 software. All data were obtained in triplicate and are presented as means ± SD. Cisplatin was used as a positive control.

Setting [14] is: MCF7, MCF-7, MTT, n = 3, mean ± SD, read-out: in vitro cytotoxicity IC50, MCF-7.
Where [15] appears, read: HepG2, MTT, n = 3, mean ± SD, read-out: in vitro cytotoxicity IC50, HepG2.
Where [16] appears, read: A549, MTT, n = 3, mean ± SD, read-out: in vitro cytotoxicity IC50, A549.
[17] abbreviates: CNE-2, CNE2, MTT, n = 3, mean ± SD, read-out: in vitro cytotoxicity IC50, CNE2.

Values after ≈ are worked out from the molar mass of the structure shown. Where two headings read alike, the source gives them in different places. A value given as a limit tells only on which side of the number the result lay.

In general, IC50 refers to the concentration that inhibits the measured activity by half. As usually defined, the MIC is the smallest concentration in the dilution series that meets the test's criterion for growth inhibition. With `CCC1CCCCCCCCC2=N/C(=C\c3[nH]c(-c4ccc[nH]4)cc3OC)C1=C2` (stereo not shown) [Compound 5, metacycloprodigiosin], the IC50 was more than 50 µM in data set [1]; more than 50 µM in data set [2] (MCF7, read-out: in vitro cytotoxicity IC50, MCF-7); more than 50 µM in data set [3] (HepG2, read-out: in vitro cytotoxicity IC50, HepG2); more than 50 µM in [4] (A549, read-out: in vitro cytotoxicity IC50, A549); more than 50 µM in data set [5] (CNE-2, read-out: in vitro cytotoxicity IC50, CNE2). The MIC in data set [6] (MRSE), in data set [7], in data set [8], in [9], in [10] and in data set [11] was more than 64 mg/L in each case. This compound also returned an MIC in data set [12] of more than 64 mg/L.

For the compound `Cc1cc(O)c2c3c(ccc2c1)C(=O)c1c(ccc([C@H]2C[C@@H](O)[C@H](O)[C@@H](C)O2)c1O)C3=O` [Compound 3, dehydroxyaquayamycin], the 50% inhibitory concentration (IC50) was 49.34 ± 0.17 µM in data set [1] (HL7702 normal hepatic cells); 23.65 ± 0.09 µM in data set [2] (setting [14]); 18.81 ± 0.12 µM in data set [3] (setting [15]); 16.4 ± 0.19 µM in data set [4] (setting [16]); 22.27 ± 0.07 µM in data set [5] (setting [17]). The “estimated therapeutic ratio (TR)” value in [13] is 2–3. The MIC in [6] (MRSE shhs-E1, read-out: MIC) was 16 mg/L (≈ 36.8 µM).

Consider `CCCCCCCCCCCC1=N/C(=C\c2[nH]c(-c3ccc[nH]3)cc2OC)C=C1` [Compound 4, undecylprodigiosin], for which the IC50 worked out at 12.47 ± 0.09 µM in data set [1] (HL7702 normal hepatic cells); 1.11 ± 0.07 µM in data set [2] (setting [14]); 4.67 ± 0.09 µM in data set [3] (setting [15]); 0.85 ± 0.01 µM in data set [4] (setting [16]); 0.28 ± 0.02 µM in data set [5] (setting [17]). In [13], the “estimated therapeutic ratio (TR)” value was 3–45. The “fold more cytotoxic/potent than the positive control cisplatin” value in data set [13] is given as 1–10 fold. Also, the MIC in data set [6] (MRSE), in [7], in data set [8], in data set [9], in data set [10] and in data set [11] was more than 64 mg/L each time. The compound also yielded an MIC in data set [12] of more than 64 mg/L.

Regarding `Cc1cc(O)c2c3c(ccc2c1)C(=O)c1c(ccc([C@H]2C[C@@H](O)[C@H](O[C@H]4CC[C@@H](O)[C@H](C)O4)[C@@H](C)O2)c1O)C3=O` [Compound 1, marangucycline A], the IC50 in [1] (HL7702 normal hepatic cells), in [2] (setting [14]), in data set [3] (setting [15]), in [4] (setting [16]) and in data set [5] (setting [17]) was more than 50 µM in each case.

Take `Cc1cc(O)c2c3c(ccc2c1)C(=O)c1c(ccc(C2CC4OC5CC(=O)C(C)OC5OC4C(C)O2)c1O)C3=O` (stereo not shown) [Compound 2, marangucycline B]: the IC50 in data set [1] (HL7702 normal hepatic cells) was 3.67 ± 0.07 µM; in data set [2] (setting [14]) it was 0.24 ± 0.003 µM; in [3] (setting [15]), 0.43 ± 0.05 µM; in data set [4] (setting [16]), 0.45 ± 0.03 µM; in data set [5] (setting [17]), 0.56 ± 0.02 µM; in [13] (Homo sapiens, four cancer cell lines, read-out: IC50 values against cancer cell lines (range over the panel)) it was 0.24 to 0.56 µM. For the same compound, the “estimated therapeutic ratio (TR)” value in data set [13] is 7–15. Moreover, in data set [13], the “fold more cytotoxic/potent than the positive control cisplatin” value is 10–20 fold.

The values are drawn from paper PMC4377985, “Cytotoxic and Antibacterial Angucycline- and Prodigiosin- Analogues from the Deep-Sea Derived Streptomyces sp. SCSIO 11594” (Marine Drugs, 2015).
